pIC50: −log10 of the molar value.
Target: T1, Recombinant human renin (Homo sapiens, UniProt P00797)
T1 construct: isolate the active form (residues 67-406); made in house; host or cells: FreeStyle 293-F cells (transient expression of pcDNA3.1(+)/hREN)
T1 sequence (P00797 67-406): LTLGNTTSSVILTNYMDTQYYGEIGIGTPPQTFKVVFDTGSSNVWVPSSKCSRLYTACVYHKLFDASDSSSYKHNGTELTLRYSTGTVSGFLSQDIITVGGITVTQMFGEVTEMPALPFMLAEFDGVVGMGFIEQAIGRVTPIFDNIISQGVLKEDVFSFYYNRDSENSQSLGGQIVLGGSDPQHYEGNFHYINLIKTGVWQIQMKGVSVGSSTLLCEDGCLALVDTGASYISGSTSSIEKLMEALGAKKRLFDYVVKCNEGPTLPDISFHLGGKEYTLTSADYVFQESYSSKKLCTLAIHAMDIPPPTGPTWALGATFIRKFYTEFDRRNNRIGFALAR
Test: In vitro enzymatic activity assay of renin inhibitors (fluorogenic peptide substrate)
Assay type: biochemical
Conditions: read-out: IC50 of Exemplified Compounds Against Renin
Method in brief: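 Enzyme: recombinant human renin, 3 nM final, 10 min compound pre-incubation at 37 °C; buffer 50 mM Hepes pH 7.4 with 0.1 mg/mL BSA or extra 2% BSA; 5% DMSO.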

Question: COCCCn1c([C@@H]2CCCN(C(=O)[C@@H]3CN(S(=O)(=O)c4ccc(Br)cc4Cl)C[C@H]3N)C2)nc2ccccc21 [Compound 342, ((3R,4S)-4-amino-1-(4-bromo-2-chlorophenylsulfonyl)pyrrolidin-3-yl)((R)-3-(1-(3-methoxypropyl)-1H-benzo[d]imidazol-2-yl)piperidin-1-yl)methanone] was tested. Which pIC50 did it give?
Answer: 6.00 to 7.00

Question: NC(=O)CCn1c([C@@H]2CCCN(C(=O)C[C@H](N)Cc3ccc(-c4ccc5c(c4)OCCO5)cc3)C2)nc2ccccc21 [Compound 484, 3-(2-((R)-1-((R)-3-amino-4-(4-(2,3-dihydrobenzo[b][1,4]dioxin-6-yl)phenyl)butanoyl)piperidin-3-yl)-1H-benzo[d]imidazol-1-yl)propanamide] was tested. Which pIC50 did it give?
Answer: < 6.00

Question: How did the pIC50 turn out when COCCCn1c([C@@H]2CCCN(C(=O)[C@@H]3CN(S(=O)(=O)c4ccc(C)cc4C)C[C@H]3N)C2)nc2ccccc21 [Compound 383, ((3R,4S)-4-amino-1-(2,4-dimethylphenylsulfonyl)pyrrolidin-3-yl)((R)-3-(1-(3-methoxypropyl)-1H-benzo[d]imidazol-2-yl)piperidin-1-yl)methanone] was run?
Answer: 6.00 to 7.00

Question: How did the pIC50 turn out when COCCCn1c([C@@H]2CCCN(C(=O)C[C@H](N)Cc3ccc4ccccc4c3)C2)nc2ccccc21 [Compound 74, (R)-3-amino-1((R)-3-(1-(3-methoxypropyl)-1H-benzo[d]imidazol-2-yl)piperidin-1-yl)-4-(naphthalen-2-yl)butan-1-one] was run?
Answer: > 7.00

Question: COCCCn1c([C@@H]2CCCN(C(=O)C[C@H](N)Cc3ccc(-c4ccc(OC)cc4)cc3)C2)nc2ccccc21 [Compound 156, (R)-3-amino-4-(4′-methoxybiphenyl-4-yl)-1((R)-3-(1-(3-methoxypropyl)-1H-benzo[d]imidazol-2-yl)piperidin-1-yl)butan-1-one] was tested. Which pIC50 did it give?
Answer: > 7.00

Question: CCCSc1ncccc1C(=O)NC[C@@H](N)CC(=O)N1CCC[C@@H](c2nc3ccccc3n2CCCOC)C1 [Compound 307, N-((S)-2-amino-4-((R)-3-(1-(3-methoxypropyl)-1H-benzo[d]imidazol-2-yl)piperidin-1-yl)-4-oxobutyl)-2-(propylthio)nicotinamide] was tested. Which pIC50 did it give?
Answer: 6.00 to 7.00

Question: With COCCCn1c([C@@H]2CCCN(C(=O)C[C@H](N)Cc3ccc(-c4ccnc(O)c4)cc3)C2)nc2ccccc21 [Compound 437, (R)-3-amino-4-(4-(2-hydroxypyridin-4-yl)phenyl)-1-((R)-3-(1-(3-methoxypropyl)-1H-benzo[d]imidazol-2-yl)piperidin-1-yl)butan-1-one] as the molecule, how does the pIC50 read?
Answer: > 7.00

Question: With COCCCn1c([C@@H]2CCCN(C(=O)C[C@H](N)Cc3ccc4ccccc4c3)C2)nc2ccc(F)cc21 [Compound 95, (R)-3-amino-1((R)-3-(6-fluoro-1-(3-methoxypropyl)-1H-benzo[d]imidazol-2-yl)piperidin-1-yl)-4-(naphthalen-2-yl)butan-1-one] as the molecule, how does the pIC50 read?
Answer: 6.00 to 7.00

Question: With COCCCn1c([C@@H]2CCCN(C(=O)[C@@H]3CN(C(=O)NC4CCCCC4)C[C@H]3N)C2)nc2ccccc21 [Compound 386, (3S,4R)-3-amino-N-cyclohexyl-4-((R)-3-(1-(3-methoxypropyl)-1H-benzo[d]imidazol-2-yl)piperidine-1-carbonyl)pyrrolidine-1-carboxamide] as the molecule, how does the pIC50 read?
Answer: < 6.00

Question: With Cc1ccccc1C[C@@H](N)CC(=O)N1CCCC(c2nc3ccccc3[nH]2)C1 (stereo partly drawn) [Compound 42, (3R)-1-(3-(1H-benzo[d]imidazol-2-yl)piperidin-1-yl)-3-amino-4-o-tolylbutan-1-one] as the molecule, how does the pIC50 read?
Answer: < 6.00

Question: COCCCn1c([C@@H]2CCCN(C(=O)C[C@H](N)Cc3ccc(-c4cc[nH]c4)cc3)C2)nc2ccccc21 [Compound 152, (R)-4-(4-(1H-pyrrol-3-yl)phenyl)-3-amino-1-((R)-3-(1-(3-methoxypropyl)-1H-benzo[d]imidazol-2-yl)piperidin-1-yl)butan-1-one] was tested. Which pIC50 did it give?
Answer: > 7.00

Question: With COCCCn1c([C@@H]2CCCN(C(=O)C[C@H](N)Cc3ccc(-c4ccccc4)cc3)C2)nc2ccccc21 [Compound 124, (R)-3-amino-4-(biphenyl-4-yl)-1-((R)-3-(1-(3-methoxypropyl)-1H-benzo[d]imidazol-2-yl)piperidin-1-yl)butan-1-one] as the molecule, how does the pIC50 read?
Answer: > 7.00

Question: How did the pIC50 turn out when COCCCn1c([C@@H]2CCCN(C(=O)[C@@H]3CN(S(=O)(=O)c4c(Cl)cccc4Cl)C[C@H]3N)C2)nc2ccccc21 [Compound 347, ((3R,4S)-4-amino-1-(2,6-dichlorophenylsulfonyl)pyrrolidin-3-yl)((R)-3-(1-(3-methoxypropyl)-1H-benzo[d]imidazol-2-yl)piperidin-1-yl)methanone] was run?
Answer: 6.00 to 7.00

Question: CC(=O)NCCn1c([C@@H]2CCCN(C(=O)C[C@H](N)Cc3ccc(-c4ccc(N)nc4)cc3)C2)nc2c(C)cccc21 [Compound 471, N-(2-(2-((R)-1-((R)-3-amino-4-(4-(6-aminopyridin-3-yl)phenyl)butanoyl)piperidin-3-yl)-4-methyl-1H-benzo[d]imidazol-1-yl)ethyl)acetamide] was tested. Which pIC50 did it give?
Answer: 6.00 to 7.00

Question: How did the pIC50 turn out when O=C([C@H]1CCCN1)N1CCCC(c2nc3ccccc3[nH]2)C1 (stereo partly drawn) [Compound 54, (3-(1H-benzo[d]imidazol-2-yl)piperidin-1-yl)((R)-pyrrolidin-2-yl)methanone] was run?
Answer: < 6.00

Question: O=C(Nc1ccc2ccccc2c1)N1CCCC(c2nc3ccccc3[nH]2)C1 (stereo not shown) [Compound 4, 3-(1H-benzo[d]imidazol-2-yl)-N-(naphthalen-2-yl)piperidine-1-carboxamide] was tested. Which pIC50 did it give?
Answer: < 6.00

Question: O=C(Nc1ccc2c(c1)CCC2)N1CCCC(c2nc3ccccc3[nH]2)C1 (stereo not shown) [Compound 9, 3-(1H-benzo[d]imidazol-2-yl)-N-(2,3-dihydro-1H-inden-5-yl)piperidine-1-carboxamide] was tested. Which pIC50 did it give?
Answer: < 6.00

Question: With COC(=O)Nc1ccc(-c2ccc(C[C@@H](N)CC(=O)N3CCC[C@@H](c4nc5ccccc5n4CCNC(C)=O)C3)cc2)cc1 [Compound 457, methyl 4′-((R)-4-((R)-3-(1-(2-acetamidoethyl)-1H-benzo[d]imidazol-2-yl)piperidin-1-yl)-2-amino-4-oxobutyl)biphenyl-4-ylcarbamate] as the molecule, how does the pIC50 read?
Answer: > 7.00

Question: With COCCCn1c([C@@H]2CCCN(C(=O)[C@@H]3CN(S(=O)(=O)C(C)C)C[C@H]3N)C2)nc2ccccc21 [Compound 371, ((3R,4S)-4-amino-1-(isopropylsulfonyl)pyrrolidin-3-yl)((R)-3-(1-(3-methoxypropyl)-1H-benzo[d]imidazol-2-yl)piperidin-1-yl)methanone] as the molecule, how does the pIC50 read?
Answer: 6.00 to 7.00

Question: How did the pIC50 turn out when COCCCn1c([C@@H]2CCCN(C(=O)C[C@H](N)Cc3ccc(-c4ccc(N)nc4)cc3)C2)nc2c(F)cccc21 [Compound 452, (R)-3-amino-4-(4-(6-aminopyridin-3-yl)phenyl)-1-((R)-3-(4-fluoro-1-(3-methoxypropyl)-1H-benzo[d]imidazol-2-yl)piperidin-1-yl)butan-1-one] was run?
Answer: > 7.00

Question: With COCCCn1c([C@@H]2CCCN(C(=O)C[C@H](N)CNC(=O)c3ccc(-c4ccsc4)cc3)C2)nc2ccccc21 [Compound 261, N-((S)-2-amino-4-((R)-3-(1-(3-methoxypropyl)-1H-benzo[d]imidazol-2-yl)piperidin-1-yl)-4-oxobutyl)-4-(thiophen-3-yl)benzamide] as the molecule, how does the pIC50 read?
Answer: > 7.00

Question: COCCCn1c([C@@H]2CCCN(C(=O)C[C@H](N)CNC(=O)c3ccc(Cl)cc3)C2)nc2ccccc21 [Compound 309, N-((S)-2-amino-4-((R)-3-(1-(3-methoxypropyl)-1H-benzo[d]imidazol-2-yl)piperidin-1-yl)-4-oxobutyl)-4-chlorobenzamide] was tested. Which pIC50 did it give?
Answer: 6.00 to 7.00

Question: With COCCCn1c([C@@H]2CCCN(C(=O)C[C@H](N)Cc3ccc(-c4ccc5c(c4)OCCN5C)cc3)C2)nc2ccccc21 [Compound 439, (R)-3-amino-1-((R)-3-(1-(3-methoxypropyl)-1H-benzo[d]imidazol-2-yl)piperidin-1-yl)-4-(4-(4-methyl-3,4-dihydro-2H-benzo[b][1,4]oxazin-7-yl)phenyl)butan-1-one] as the molecule, how does the pIC50 read?
Answer: > 7.00

Question: How did the pIC50 turn out when COCCCn1c([C@@H]2CCCN(C(=O)C[C@H](N)Cc3ccc(C(=O)NC4CCCCC4)cc3)C2)nc2ccccc21 [Compound 203, 4-((R)-2-amino-4-((R)-3-(1-(3-methoxypropyl)-1H-benzo[d]imidazol-2-yl)piperidin-1-yl)-4-oxobutyl)-N-cyclohexylbenzamide] was run?
Answer: 6.00 to 7.00

Question: With COCCCn1c([C@@H]2CCCN(C(=O)C[C@H](N)c3cccc(C(F)(F)F)c3)C2)nc2ccccc21 [Compound 84, (S)-3-amino-1-((R)-3-(1-(3-methoxypropyl)-1H-benzo[d]imidazol-2-yl)piperidin-1-yl)-3-(3-(trifluoromethyl)phenyl)propan-1-one] as the molecule, how does the pIC50 read?
Answer: 6.00 to 7.00

Question: With COCCCn1c([C@@H]2CCCN(C(=O)C[C@H](N)Cc3ccc(-c4csc(N5CC[C@H](O)C5)n4)cc3)C2)nc2ccccc21 [Compound 435, (R)-3-amino-4-(4-(2-((S)-3-hydroxypyrrolidin-1-yl)thiazol-4-yl)phenyl)-1-((R)-3-(1-(3-methoxypropyl)-1H-benzo[d]imidazol-2-yl)piperidin-1-yl)butan-1-one] as the molecule, how does the pIC50 read?
Answer: > 7.00

Question: With COCCCn1c([C@@H]2CCCN(C(=O)C[C@H](N)CNC(=O)c3ccco3)C2)nc2ccccc21 [Compound 325, N-((S)-2-amino-4-((R)-3-(1-(3-methoxypropyl)-1H-benzo[d]imidazol-2-yl)piperidin-1-yl)-4-oxobutyl)furan-2-carboxamide] as the molecule, how does the pIC50 read?
Answer: < 6.00

Question: COCCCn1c([C@@H]2CCCN(C(=O)C[C@H](N)Cc3ccc(-c4ccc(OC)cc4)cc3)C2)nc2c(F)cccc21 [Compound 492, (R)-3-amino-1-((R)-3-(4-fluoro-1-(3-methoxypropyl)-1H-benzo[d]imidazol-2-yl)piperidin-1-yl)-4-(4′-methoxybiphenyl-4-yl)butan-1-one] was tested. Which pIC50 did it give?
Answer: > 7.00

— patent US8138168B1 (Takeda Pharmaceutical Company Limited, priority 2007, dated 2012)
